{"source": "paper PMC9607081", "about": "(Membranes, 2022)", "key": {"[1]": {"target": "T1, human GlyR α1 subunit P230A (Homo sapiens, UniProt P23415, P258A)", "T1 construct": "expressed in transfected cells; host or cells: Xenopus laevis oocytes injected with receptor mRNA", "T1 sequence (P23415 29-457 P258A)": "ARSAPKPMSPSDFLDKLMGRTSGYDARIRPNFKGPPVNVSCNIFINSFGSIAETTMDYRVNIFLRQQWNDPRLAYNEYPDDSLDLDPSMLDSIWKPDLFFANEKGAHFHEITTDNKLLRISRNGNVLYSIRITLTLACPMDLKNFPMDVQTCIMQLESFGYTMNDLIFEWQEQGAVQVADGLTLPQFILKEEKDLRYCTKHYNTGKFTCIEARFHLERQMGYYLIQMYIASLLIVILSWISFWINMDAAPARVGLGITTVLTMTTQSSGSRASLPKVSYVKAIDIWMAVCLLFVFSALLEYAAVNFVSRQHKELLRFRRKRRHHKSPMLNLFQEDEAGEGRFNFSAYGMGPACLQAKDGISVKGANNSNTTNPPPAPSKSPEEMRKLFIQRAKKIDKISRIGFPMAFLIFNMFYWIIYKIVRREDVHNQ", "assay": "Two-electrode voltage clamp of Xenopus oocytes expressing P230A GlyR", "type": "cell-based", "conditions": "for nH (Hill coefficient): Table 1, n = 5; for EC50: Table 1, −60 mV", "experimental": "(§1) Injection volumes were 50–100 nL per cell.\n(§2) All experiments were performed at 22–25 °C. […] The holding potential was −60 mV unless otherwise specified."}, "human GlyR α1 subunit WT": {"target": "T2, human GlyR α1 subunit WT (Homo sapiens, UniProt P23415)", "T2 construct": "expressed in transfected cells; host or cells: Xenopus laevis oocytes injected with receptor mRNA", "T2 sequence (P23415 29-457)": "T1 sequence (P23415 29-457 P258A) with A230P", "assay": "Two-electrode voltage clamp of Xenopus oocytes expressing WT GlyR", "type": "cell-based", "conditions": "for nH (Hill coefficient): Table 1, n = 5; for EC50: Table 1, −60 mV; for % ImaxTau /ImaxGly: Tau maximal current relative to Gly maximal current", "experimental": "as §1, §2"}, "[2]": {"target": "T3, human GlyR α1 subunit P146 (CysL) substituted with CFP (Homo sapiens, UniProt P23415, P174X)", "T3 sequence (P23415 29-457 P174X)": "T1 sequence (P23415 29-457 P258A) with P146X, A230P", "assay": "TEVC, oocytes, nonsense suppression, P146 CFP", "type": "cell-based", "experimental": "(§3) The cDNA for the human GlyR α1 subunit was in pGEMHE (ThermoFischer Scientific, Bishops Stortford, UK). Site-directed mutagenesis was performed using QuikChange (Agilent Technologies, Milton Keynes, UK) to generate the appropriate codon. For non-canonical amino acid mutants and conventional mutants generated by nonsense suppression, the site of interest was mutated to the TAG stop codon. Receptor mRNA was then prepared by in vitro runoff transcription using the Ambion T7 mMessage mMachine kit (ThermoFischer Scientific, Bishops Stortford, UK). Noncanonical amino acids were ligated to tRNA as previously described.\n(§4) Stage V-VI oocytes of Xenopus laevis were harvested and injected with RNAs as described previously. For nonsense suppression experiments, each cell was injected with 50–100 ng each of receptor mRNA and tRNA charged with the appropriate Pro analogue ~48 h before recording. For wild type and conventional mutants, each cell received a single injection of 10–25 ng of receptor mRNA ~24 h before recording. Injection volumes were 50–100 nL per cell.\n(§5) As a negative control for suppression experiments at each site, unligated tRNA was co-injected with mRNA in the same manner as charged tRNA. […] Pro recovery (injecting tRNA charged with Pro to regenerate a wild type channel via nonsense suppression) was used alongside Pro analogues as a positive control.\n(§6) Two-electrode voltage clamping of Xenopus oocytes was performed using standard electrophysiological procedures as previously, using an OpusXpress system (Axon Instruments, Inc., Union City, CA, USA). All experiments were performed at 22–25 °C. […] The holding potential was −60 mV unless otherwise specified. […] Data were analysed using Prism (GraphPad Software Inc., San Diego, CA, USA), fitting concentration-response data to the four-parameter logistic equation. Statistical analysis was performed using ANOVA with a Dunnett’s multiple comparisons post test."}, "[3]": {"tested_on": "human GlyR α1 subunit P96 (loopA) substituted with TFP", "experimental": "as §3, §4, §5, §6"}, "[4]": {"tested_on": "human GlyR α1 subunit P30 (α1β1L) substituted with 3MeP", "conditions": "Table 2, P30 3MeP, n = 4", "experimental": "as §3, §4, §5, §6"}, "[5]": {"tested_on": "human GlyR α1 subunit P96 (loopA) substituted with 2MeP", "conditions": "Table 2, P96 2MeP, n = 4", "experimental": "as §3, §4, §5, §6"}, "[6]": {"tested_on": "human GlyR α1 subunit P30 (α1β1L) substituted with TFP", "experimental": "as §3, §4, §5, §6"}, "[7]": {"tested_on": "human GlyR α1 subunit P96 (loopA) substituted with Pip", "experimental": "as §3, §4, §5, §6"}, "[8]": {"target": "human GlyR α1 subunit P230 (M1) substituted with Vah (Homo sapiens, UniProt P23415)", "conditions": "Table 2, n = 4", "experimental": "as §3, §4, §5, §6"}, "[9]": {"conditions": "Table 2, nonsense suppression, n = 4"}, "[10]": {"conditions": "Table 2, nonsense suppression, n = 5"}, "[11]": {"conditions": "n = 5, read-out: pEC50 (converted)"}}, "note": "Changes are numbered by the printed parent chain. Read-outs that look alike come from different tables or passages of the source.", "data": [{"smiles": "NCC(=O)O", "note": "[Gly, glycine]", "values": [{"measurement": "nH (Hill coefficient)", "setting": "[1]", "value": "2.2 ± 0.4"}, {"measurement": "nH (Hill coefficient)", "setting": "human GlyR α1 subunit WT", "value": "2.3 ± 0.5"}, {"measurement": "nH", "setting": "[2]; Table 2, P146 CFP, n = 6", "value": "3.7 ± 0.6"}, {"measurement": "nH", "setting": "[2]; Table 3, P146 CFP, n = 3", "value": "3.0 ± 0.5"}, {"measurement": "nH", "setting": "[3]; Table 2, n = 4", "value": "2.9 ± 0.7"}, {"measurement": "EC50", "setting": "[3]; [9]", "value": 127, "unit": "µM"}, {"measurement": "pEC50", "setting": "[3]; [9]", "value": "3.898 ± 0.03", "unit": "M"}, {"measurement": "nH", "setting": "[4]", "value": "3.0 ± 2.7"}, {"measurement": "EC50", "setting": "[4]; nonsense suppression", "value": 8.9, "unit": "µM"}, {"measurement": "pEC50", "setting": "[4]; nonsense suppression", "value": "5.046 ± 0.05", "unit": "M"}, {"measurement": "nH", "setting": "[5]", "value": "2.8 ± 0.5"}, {"measurement": "EC50", "setting": "[5]; nonsense suppression", "value": 254, "unit": "µM"}, {"measurement": "pEC50", "setting": "[5]; nonsense suppression", "value": "3.596 ± 0.03", "unit": "M"}, {"measurement": "nH", "setting": "[6]; Table 2, n = 5", "value": "2.7 ± 1.3"}, {"measurement": "EC50", "setting": "[6]; [10]", "value": 97, "unit": "µM"}, {"measurement": "pEC50", "setting": "[6]; [10]", "value": "4.013 ± 0.05", "unit": "M"}, {"measurement": "nH", "setting": "[7]; Table 2, n = 4", "value": "2.9 ± 0.3"}, {"measurement": "EC50", "setting": "[7]; [9]", "value": 215, "unit": "µM"}, {"measurement": "pEC50", "setting": "[7]; [9]", "value": "3.667 ± 0.02", "unit": "M"}, {"measurement": "nH", "setting": "[8]", "value": "2.6 ± 0.4"}]}, {"smiles": "NCCS(=O)(=O)O", "note": "[Tau, taurine]", "values": [{"measurement": "nH (Hill coefficient)", "setting": "[1]", "value": "2.2 ± 0.4"}, {"measurement": "EC50", "setting": "[1]; n = 5, read-out: EC50", "value": 1190, "unit": "µM"}, {"measurement": "EC50", "setting": "[1]; [11]", "value": 1190, "unit": "µM"}, {"measurement": "% ImaxTau /ImaxGly", "setting": "[1]; n = 5", "value": "20 ± 1", "unit": "%"}, {"measurement": "nH (Hill coefficient)", "setting": "human GlyR α1 subunit WT", "value": "1.7 ± 0.3"}, {"measurement": "EC50", "setting": "human GlyR α1 subunit WT; n = 5, read-out: EC50", "value": 583, "unit": "µM"}, {"measurement": "EC50", "setting": "human GlyR α1 subunit WT; [11]", "value": 582, "unit": "µM"}, {"measurement": "% ImaxTau /ImaxGly", "setting": "human GlyR α1 subunit WT; n = 5", "value": "50 ± 4", "unit": "%"}, {"measurement": "% ImaxTau /ImaxGly", "setting": "human GlyR α1 subunit WT; n = 5, listed as Taurine", "value": 50, "unit": "%"}, {"measurement": "EC50", "setting": "[2]", "value": 579, "unit": "µM"}, {"measurement": "nH", "setting": "[2]; Table 3, P146 CFP, n = 3", "value": "2.1 ± 0.2"}, {"measurement": "Emax", "setting": "[2]; Table 3, P146 CFP, n = 3, read-out: % ImaxTau /ImaxGly", "value": "71 ± 3", "unit": "%"}]}]}
